One experiment deals with freely-feeding rats. The conditions noted are these: central administration, 4 hour time period; cited from earlier work.
The next experiment deals with rats. Nature of the experiment: Rat sleep/EEG studies. Format: in vivo. The conditions noted are these: central administration at the onset of the normal sleep period. The text has this:
Therefore antagonists of its receptor may be useful in the treatment of sleep disorders including insomnia.

Turning to “orexin-A: peptide ligand (agonist) of the orexin-1 receptor; amino acid sequence given in the 1st table (QPLPDCCRQKTCSCRLYELLHGAGNHAAGILTL; Orexin-A; UniProt O43612 34-66, looked up)”, the “increase in food intake over control rats receiving vehicle” value in the experiment on freely-feeding rats is given as “approximately four-fold”. For the same substance, in the experiment on rats, the arousal entry is listed as “dose-related increase in arousal”; the “paradoxical sleep and slow wave sleep 2” value is “reduction in paradoxical sleep and slow wave sleep 2”.

These data come from patent publication US6506774B1, “Use of orexin receptor antagonists” (SmithKline Beecham p.l.c., priority 1999, dated 2003).
